Read-outs that look alike come from different tables or passages of the source.
Legend:
[1] = system: Pseudomonas aeruginosa clinical isolates; test: Sensitizing activity for clinical isolates (MIC of antibiotic); type: cell-based; conditions: antibiotic alone
Experimental: (§1) Experiments for the determining the sensitizing activity of the conjugates were performed similar to those described for PMBN in previous studies (Ofek et al 1994). All conjugates were teted at 20 μg/ml to determine the MIC of the indicated antibiotic. Antibiotics were purchased from Sigma (novobiocin, erythromycin and gentamycin), Bristol (Amikin), Galaxo (Zinacef), and B.R.L (augmentin). Numbers in brackets indicate number of is strains tested.

[2] = system: Klebsiella pneumoniae clinical isolates; test: as above; type: cell-based; conditions: antibiotic alone
Experimental: as §1

[3] = system: erythromycin resistant Klebsiella pneumoniae; test: Mice protection assay; type: in vivo; conditions: for Mice survival (Dead/Total): intraperitoneally; for protection of mice, in words: with erythromycin
Experimental: Sublethal dose of Klebsiella pneumoniae (2×10^5 cfu) were injected intreperitonially to mice. […] After additional 24 hours, the mice were treated once with half dose. Survival was followed daily for 7 days.
Polymyxin octapeptide conjugated with the tripeptide formyl Met-Leu-Phe (fMLF, SEQ ID NO:1) was assayed in combination with erythromycin for the ability to provide protection against Klebsiella pneumoniae infection in an in vivo infection model previously described (Ofek et al., 1994).

Klebsiella pneumonia [4] = test: Sensitization assay (fold decrease in MIC of novobiocin); type: cell-based; conditions: sensitization towards novobiocin, peptide 50 μg/ml, relative to PMBN
Experimental: (§2) Bacterial suspension (10 μL, 1×10^5 CFU) was inoculated into microtiter plate wells containing 100 μL of a serial two-fold dilution (1000-0.5 μg/mL) of novobiocin (Sigma) in ISB. To each well, 10 μL of the test peptide was added to a final concentration of 50 μg/mL. The fold decrease in MIC for novobiocin comparing wells with and without test peptides was calculated and designated as sensitizing activity. The relative sensitizing activity of the test peptide was calculated as percent of the sensitizing activity of 50 μg/mL pPMBN.

Escherichia coli = test: as above; type: cell-based; conditions: sensitization towards novobiocin, peptide 50 μg/ml, relative to PMBN
Experimental: as §2

E. coli LPS = test: Displacement assay of dansyl-PMBN from LPS; type: binding; conditions: for ability to displace Dansyl-PMBN from LPS / affinity to LPS, in words: comparison with PMBN or polymyxin B; for IC50: inhibits 50% of initial fluorescence of 0.55 μM Dansyl-PMBN bound to E. coli-LPS, read-out: Peptides IC50
Experimental: To determine the binding of a given peptide to LPS, a displacement assay was performed in which 5 or 10 μl (1×10^−5-1×10^−3 M) of the tested peptide at desired concentrations were added at 5 minutes interval to a pre-equilibrated mixture of LPS solution (2 mL, 3 μg/mL, ˜2×10^−7 M) in HEPES buffer (5 mM, pH 7.2) and dansyl-PMBN (0.55 μM). The fluorescence intensity (excitation wavelength of 340 nm and emission wavelength of 485 nm) was recorded after each time interval. Each experiment was repeated 2-3 times. The percent inhibition of fluorescence intensity was plotted as a function of the peptide concentration from which the concentration required for maximal (Imax) and 50% (IC50) displacement of the dansyl-PMBN from LPS was derived.
Values were calculated as peptide's potency, at a concentration of 50 μg/ml, relatively to PMBN. IC50 values represent peptide concentrations that inhibits 50% of the initial fluorescence of 0.55 μM Dansyl-PMBN bound to E. coli-LPS.

E. coli = test: Minimal inhibitory concentration (MIC) assay; type: cell-based; conditions: compared with PMBN
Experimental: (§3) Gram-negative bacteria were grown on nutrient agar plates (Difco Laboratories, Detroit, Mich.) and kept at 4° C. An overnight culture in isotonic sensitest broth (ISB, Oxoid) was adjusted to 1×10^5 CFU/mL and inoculated into microtiter plate wells containing each 100 μL of a serial twofold dilution (1000-0.5 μg/mL) of the tested antibiotics in ISB. MIC was defined as the lowest concentration at which there was no visible bacterial growth after incubation for 20 hours at 37° C. The results are reported for 4-8 separate tests that varied by no more than one dilution.

Klebsiella pneumonia [5] = test: Minimal inhibitory concentration (MIC) assay; type: cell-based; conditions: compared with PMBN
Experimental: as §3

[6] = system: phagocytosis of E. coli by human monocytes-derived macrophages; test: Phagocytosis activity assay; type: cell-based
Experimental: (§4) The conjugates and the control peptides were incubated with E. coli (10^6 CFU/mL) prior to the contact with human monocytes-derived macrophages monolayer. After 30 minutes of phagocyte-bacteria encounter, the phagocytes were washed, lysed and the released bacteria allowed to grow for 4.5 hours at 37° C. The amount of trapped bacteria were calculated as a function of absorbency at 600 nm.
as §4, with “nm. fMLF by itself (10 μM) enhanced by 2.5 fold the phagocytosis comparing to the control (FIG. 2). […] Tuftsin-PMBN enhanced the phagocytosis by 3 folds comparing to the control.” for “nm.”

Gram-negative bacteria [7] = test: Antimicrobial activity of the peptide per se (MIC assay); type: cell-based; conditions: peptide alone
Experimental: as §3

[8] = cited from earlier work
[9] = cited from earlier work; remark: listed apart in the source
[10] = Lam et al., 1986; cited from earlier work
[11] = system: clinical isolates of gram-negative bacteria; conditions: previous studies (Ofek et al, 1994); cited from earlier work
Gram-negative bacteria [12] = test: Sensitization assay, bacterium not specified at the place; type: cell-based; conditions: comparison with PMBN
Experimental: as §2

For `CC[C@H]1OC(=O)[C@H](C)[C@@H](O[C@H]2C[C@@](C)(OC)[C@@H](O)[C@H](C)O2)[C@H](C)[C@@H](O[C@@H]2O[C@H](C)C[C@H](N(C)C)[C@H]2O)[C@](C)(O)C[C@@H](C)C(=O)[C@H](C)[C@@H](O)[C@]1(C)O` [Erythromycin], the “Range of MIC” value [1] was 200 µg/mL, the “Range of MIC” value [2] was 100 to 200 µg/mL and the “Mice survival (Dead/Total)” value ([3]; erythromycin 10 mg/Kg alone) was 18/18. For the same molecule, the “protection of mice, in words” value [3] was “all 18 mice who received erythromycin only died”.
In the case of `CO[C@@H]1[C@@H](OC(N)=O)[C@@H](O)[C@H](Oc2ccc3c(O)c(NC(=O)c4ccc(O)c(CC=C(C)C)c4)c(=O)oc3c2C)OC1(C)C` [Novobiocin], the “Range of MIC” value [1] is reported as 62 to 1000 µg/mL.
In the case of “Formyl-Met-Leu-Phe-Thr-Dab-cyclo[Dab-Dab-dPhe-Leu-Dab-Dab-Thr] [fMLF-PMBN]”, the “peptides potency (%) Klebsiella pneumonia” value (Klebsiella pneumonia [4]) is reported as 475%, the “peptides potency (%) Escherichia coli” value (Escherichia coli) is reported as 783% and the “ability to displace Dansyl-PMBN from LPS / affinity to LPS, in words” value (E. coli LPS) is reported as “even lower than PMBN”. The IC50 (E. coli LPS) was 12000 nM, the “effect of the added peptide on MIC of PMBN towards E. coli” value (E. coli) was “did not significantly reduce” and the “effect of the added peptide on MIC of PMBN towards Klebsiella pneumonia” value (Klebsiella pneumonia [5]) was “did not significantly reduce”. For the same molecule, the “protection of mice, in words” value [3] was “Almost complete protection”, the “enhancement of phagocytosis, in words” value ([6]; 1 μM) was “enhanced the phagocytosis of the bacteria” and the “antimicrobial activity per se” value (Gram-negative bacteria [7]) was “did not have antimicrobial activity by it self”. The “antimicrobial activity per se” value (Gram-negative bacteria [7]; listed as PMBN-fMLF) was “no antimicrobial activity per se”.
With Gentamycin the “Range of MIC” value [1] was 1000 µg/mL.
For Polymyxin B, the IC50 (E. coli LPS) is listed as 500 nM, the “Mice survival (Dead/Total)” value ([3]; 1.5 + 1.5 + 1.5 mg/Kg, no erythromycin) is listed as 3/18 and the “neuromuscular blockade, neurotoxic or nephrotoxic effects” value (“neuromuscular blockade” for short) ([8]; dogs, 3 mg/Kg body weight intravenously over a long period) is listed as “all of which were observed”. The “neuromuscular blockade” value ([9]; rats, 3 mg/Kg body weight intravenously over a long period) was “all of which were observed”.
For “Thr-Dab-cyclo[Dab-Dab-dPhe-Leu-Dab-Dab-Thr] [PMBN]”, the “peptides potency (%) Klebsiella pneumonia” value (Klebsiella pneumonia [4]) was 100%, the “peptides potency (%) Escherichia coli” value (Escherichia coli) was 100% and the IC50 (E. coli LPS) was 4500 nM. For the same molecule, the “dose that was not lethal (doses as high as)” value [10] was 200 mg/Kg body weight, the “protection of mice, in words” value [3] was “partial protection” and the “neuromuscular blockade” value ([8]; dog, in vivo, iv, 3 mg/kg) was “did not cause neuromuscular blockade and neurotoxic or nephrotoxic effects”. For the same molecule, the “clinical isolates rendered more susceptible to novobiocin” value [11] was 53 out of 53 and the “neuromuscular blockade” value ([9]; rat, in vivo, iv, 3 mg/kg) was “did not cause neuromuscular blockade and neurotoxic or nephrotoxic effects”.
For “Thr-Lys-Pro-Arg-Thr-Dab-cyclo[Dab-Dab-dPhe-Leu-Dab-Dab-Thr] [Tuftsin-PMBN]”, the “peptides potency (%) Klebsiella pneumonia” value (Klebsiella pneumonia [4]) was 268%, the “peptides potency (%) Escherichia coli” value (Escherichia coli) was 863% and the “ability to displace Dansyl-PMBN from LPS / affinity to LPS, in words” value (E. coli LPS) was “much higher potency then PMBN”. For the same molecule, the IC50 (E. coli LPS) was 700 nM, the “effect of the added peptide on MIC of PMBN towards E. coli” value (E. coli) was “did not significantly reduce” and the “effect of the added peptide on MIC of PMBN towards Klebsiella pneumonia” value (Klebsiella pneumonia [5]) was “did not significantly reduce”. The “enhancement of phagocytosis comparing to the control” value ([6]; concentration not given) was 3 folds, the “antimicrobial activity per se” value (Gram-negative bacteria [7]) was “did not have antimicrobial activity by it self” and the “antimicrobial activity per se” value (Gram-negative bacteria [7]; listed as PMBN-tuftsin) was “no antimicrobial activity per se”. The “sensitizing activity, in words” value (Gram-negative bacteria [12]) was “increased ability to enhance the permeability of the bacterial outer membrane to novobiocin”.
For “formyl-Met-Leu-Phe [fMLF, reference compound]”, the “enhancement of phagocytosis comparing to the control” value ([6]; 10 μM) was 2.5 fold.

From patent publication US7435716B2, “Compounds pharmaceutical compositions and methods for treatment of bacteremia and/or septicemia” (Ramot At Tel Aviv University Ltd., priority 2001, dated 2008)
